In PubChem BioAssay AID1996:
Values after ≈ are worked out from the molar mass of the structure shown.

Details: buffer; pH 7.4; 200.0 µM

Row | solubility kinetic [µg/mL] | SMILES
1 | 21.4 (≈ 60.7 µM) | COc1ccc(CCC(C)NCCc2ccc(Cl)cc2Cl)cc1 (stereo not given)
2 | > 61.8 | CN(CC(=O)N(C)CC(=O)Nc1c(Cl)cccc1Cl)Cc1ccccc1F
3 | 1.3 (≈ 4.67 µM) | CCOC(=O)c1cc(C(C)(C)C)nc(SC)c1C#N
4 | > 38.9 | Cn1nccc1C(=O)OCC(=O)Nc1ccccc1
5 | 52.9 (≈ 143 µM) | COc1cc(/C=C/C(=O)OCC(=O)NCCCc2ccccc2)ccc1O
6 | > 44 | CC(C)CC(NC(N)=O)C(=O)Nc1ccc2c(c1)OCO2 (stereo not given)
7 | > 45.5 | CCOc1cc(S(=O)(=O)NCC2CCCO2)ccc1F (stereo not given)
8 | > 52.7 | C(CNC1C2CC3CC(C2)CC1C3)CN1CCOCC1.Cl (stereo not given)
9 | > 26.3 | Cn1c(/C=N/O)nc2ccccc21
10 | > 47.9 | CSCCC(NC(=O)c1ccco1)C(=O)Nc1ccncc1 (stereo not given)
11 | 34.5 (≈ 108 µM) | C#CCOc1ccc(C2C(C#N)=C(N)Oc3cc(O)ccc32)cc1 (stereo not given)
12 | > 41.9 | CCc1ccc2[nH]c(=O)c(Cc3ccccc3)c(O)c2c1
13 | < 0.7 | COc1ccc(C(=O)Nc2ccc3ccccc3c2)c(OC)c1
14 | 38.4 (≈ 129 µM) | Cc1cc(Oc2ccc(Cl)cc2)nc(-c2ccccn2)n1
15 | 40.3 (≈ 129 µM) | O=C(CCc1c[nH]c2ccccc12)NCc1cccc(Cl)c1
16 | > 46.8 | O=C(O)c1ccc(Cn2cc(/C=C\[N+](=O)[O-])c3ccccc32)o1
17 | 61.3 (≈ 136 µM) | O=C(CC1SC(N2CCCCC2)=NC1=O)Nc1ccc(C(=O)NCc2ccccc2)cc1 (stereo not given)
18 | 0.5 (≈ 1.54 µM) | CCCSc1nsc(NC(=O)c2cccnc2OCC)n1
19 | > 41.9 | COc1ccc(NC(=O)COC(=O)C2CC2)c(OC)c1
20 | 44.5 (≈ 116 µM) | COc1ccc(CCN2C(=O)CC(C(N)=O)SC2=Nc2ccccc2)cc1 (stereo not given)
21 | 7.8 (≈ 29.4 µM) | O=C(Nc1ccccc1F)Nc1cccnc1Cl
22 | 7.4 (≈ 24.7 µM) | N#Cc1ccccc1OCC(=O)NC(=O)NCc1ccco1
23 | 32.8 (≈ 100 µM) | COc1ccccc1NC(=O)CSc1nc(SC)ns1
24 | > 29.1 | COC(=O)c1nc2ccccn2c1F

Row | solubility kinetic [µg/mL] | SMILES
25 | 17 (≈ 48.9 µM) | Cc1nc(/C(N)=N/OC(=O)c2ccc(Cl)cc2)c(C(F)(F)F)o1
26 | 43.1 | Br.Fc1ccccc1CNCC1CCCO1 (stereo not given)
27 | > 48.7 | CN1CCN(C=Nc2nc3ccccc3nc2N2CCCC2)CC1
28 | > 42.2 | COc1cc(C(=S)N2CCCC2)cc(OC)c1OC
29 | > 40.2 | CC1=C([N+](=O)[O-])C(c2ccccc2Cl)NC(=O)N1 (stereo not given)
30 | 9.3 (≈ 25.7 µM) | O=C1CN(C(=O)COC(=O)c2ccc([N+](=O)[O-])s2)c2ccccc2N1
31 | 4.4 (≈ 11.9 µM) | O=C(CCCCC(=O)Nc1ccc(F)cc1F)Nc1ccc(F)cc1F
32 | > 39.2 | N#Cc1ccc(OCC(=O)NC2=NCCS2)cc1
33 | 25.6 (≈ 73.7 µM) | COC(=O)CSc1nc(N2CCOCC2)c2c(c1C#N)CCCC2
34 | 45.4 (≈ 139 µM) | CC(C)N1CC(C(=O)Nc2ccc(Cl)c([N+](=O)[O-])c2)CC1=O (stereo not given)
35 | > 39.7 | Cc1sc2nc(C)n(/N=C/N(C)C)c(=O)c2c1C
36 | > 56.8 | CC1=C(C)C(OCCBr)N(c2cc(O)c(Cl)cc2F)C1=O (stereo not given)
37 | > 48.9 | CC1(C(=O)NNC(=S)NCC2CCCO2)CC1(Cl)Cl (stereo not given)
38 | 13 (≈ 51.7 µM) | Cn1c(NC(=O)c2ccccc2)nc2ccccc21
39 | 16.3 (≈ 93.6 µM) | O=[N+]([O-])c1cccc2ncccc12
40 | 47.1 (≈ 142 µM) | Cc1ccc(C)c(NC(=O)Cc2nc(CNCC(C)C)cs2)c1
41 | 32.9 (≈ 91.9 µM) | CCN(CC)S(=O)(=O)c1ccc(Cl)c(NC2=NCCCCC2)c1
42 | > 46.1 | COc1ccc(N=C2CCS(=O)(=O)c3sccc32)cc1
43 | > 41.2 | Cc1ccc(NC(=O)C2CC(=O)N(C(C)C)C2)cc1C (stereo not given)
44 | > 44.9 | CS(=O)(=O)Nc1cccc(-c2cnc3ccccc3n2)c1
45 | 0.7 (≈ 2.36 µM) | C=CCOc1nc(-c2ccccc2Cl)nc2ccccc12
46 | > 40.9 | CN1c2ccccc2C(=O)NC1c1ccc(Cl)cc1 (stereo not given)
47 | < 0.2 | Cc1ccc(CSc2ncnc3onc(C)c23)cc1
48 | > 46.3 | Cc1ccc(N(CN2CCCC2=O)C(=O)c2ccccc2)cc1

Row | solubility kinetic [µg/mL] | SMILES
49 | 0.4 (≈ 1.18 µM) | COc1ccc(OC2CCN(C(=O)Nc3ccc(C)cc3)CC2)cc1
50 | < 0.4 | Cc1cc(NC(=O)c2ccco2)c(=O)n(Cc2cccc(C(F)(F)F)c2)c1
51 | > 28.4 | S=P(N1CC1)(N1CC1)N1CC1
52 | 30.9 (≈ 112 µM) | CCOC(=O)N1CCN(CCCc2ccccc2)CC1
53 | 1 (≈ 3.46 µM) | Cc1ccc(OCC(=O)Nc2c[nH]c(=O)[nH]c2=O)cc1C
54 | 17.6 (≈ 51.7 µM) | CCN(CC)C(=O)CSc1ncccc1-c1nc2ccccc2[nH]1
55 | > 58.5 | CC(C(=O)Nc1ccc2c(c1)OCO2)N(C)CC(=O)Nc1ccccc1Cl (stereo not given)
56 | > 45.4 | O=c1[nH]c(=S)[nH]cc1S(=O)(=O)c1cccc(Cl)c1
57 | 11.2 (≈ 23.5 µM) | COC(=O)C1=C(C(=O)OC)SC(=C2C(=S)C(C)(C)N(C(=O)C3CC3)c3ccccc32)S1
58 | 32.5 (≈ 109 µM) | CCCC(=O)C1=C(N(C)c2ccccc2)CC(C)(C)CC1=O
59 | 11.2 (≈ 32.5 µM) | Cc1ccccc1CNC(=O)CN1C(=O)c2ccccc2S1(=O)=O
60 | 0.6 (≈ 1.87 µM) | COC(=O)c1sc(NC(=O)COc2ccccc2C)nc1C
61 | > 45.5 | CN(C)C(=O)c1cnc(-c2ccccc2)nc1-c1ccccc1
62 | 43.5 (≈ 142 µM) | O=C(CSc1ccccn1)Nc1ccc(F)c([N+](=O)[O-])c1
63 | < 0.7 | Cc1ccc(C(C)C)cc1OCC(=O)NC1CCCCCCC1
64 | > 57.8 | CCc1cc(=O)oc2cc(OCC(=O)N3CC[C@@]4(O)CCCC[C@H]4C3)ccc12
65 | > 42.8 | COc1ccc(S(=O)(=O)N2CCCC2)cc1C(=O)O
66 | 37.8 (≈ 121 µM) | Cc1ccc(NC(/C=C/N(C)C)=C/C(=O)C(F)(F)F)c(C)c1
67 | 40.1 (≈ 127 µM) | N#Cc1ccc(N2CCN(C(=O)c3cccs3)CC2)c(F)c1
68 | 52.6 (≈ 141 µM) | COc1cc(C(=O)NCCNC(=O)c2ccc(C)nc2)cc(OC)c1OC
69 | 32.8 (≈ 126 µM) | Nc1cc(C(F)(F)F)ccc1OCC1CCCO1 (stereo not given)
70 | > 42.2 | O=C(O)CCC(=O)NNC(=O)c1ccc([N+](=O)[O-])cc1
71 | > 46.6 | Cc1ccccc1C(=O)Nc1ccc(N2CCN(C)CC2)nc1
72 | > 51.4 | COc1cccc(NC(=O)CSc2nnc(-c3cccnc3)o2)c1

Row | solubility kinetic [µg/mL] | SMILES
73 | > 25.4 | Cc1nc([N+](=O)[O-])cn1C(C)C
74 | > 38 | O=C(O)CCC(=O)NCC(=O)c1ccc(F)cc1
75 | 34.2 (≈ 144 µM) | CCC1(C)Cc2nc(Cl)c(C#N)cc2CO1 (stereo not given)
76 | 20.3 (≈ 61.8 µM) | COc1cccc(N2CC(C(=O)Nc3ccc(F)cc3)CC2=O)c1 (stereo not given)
77 | > 53.2 | Cn1c(=O)c2[nH]c(-c3ccc(S(=O)(=O)O)cc3)nc2n(C)c1=O.O
78 | > 42.1 | O=S(=O)(c1ccc2c(c1)CCCN2)N1CCCCC1
79 | 28 (≈ 76.2 µM) | CN1CCN(C(=S)c2cn(Cc3cccc(F)c3)c3ccccc23)CC1
80 | > 55.1 | COc1ccc(C(=O)C(C)OC(=O)CN2C(=O)c3ccccc3C2=O)cc1 (stereo not given)
81 | 3.5 (≈ 11.3 µM) | CCCCN(C/C=C/c1ccccc1OC)Cc1ccccc1
82 | 48.9 (≈ 144 µM) | CC(C)(C)NC(=O)COC(=O)C1c2ccccc2Oc2ccccc21
83 | > 50.6 | CCOc1ccc(CCN2CN(CC)CNC2=S)cc1OCC
84 | 42.1 (≈ 138 µM) | COc1ccccc1NC(=O)COC(=O)CCC1CCCC1
85 | < 0.4 | CCn1c(=NC(=O)C2COc3ccccc3O2)sc2c(C)ccc(OC)c21 (stereo not given)
86 | > 52.4 | C=CCOCC(O)Cn1c(N2CCCC2)nc2c1c(=O)[nH]c(=O)n2C (stereo not given)
87 | 2.2 (≈ 5.49 µM) | COc1ccc(C(=O)N[C@H](C(=O)NCCCSc2ccccc2)C(C)C)cc1
88 | 51.3 (≈ 146 µM) | COc1cccc(S(=O)(=O)N2CCN(C(=O)c3ccco3)CC2)c1
89 | > 23.4 | O=[N+]([O-])/C=C1\CCCCCN1
90 | 16.9 (≈ 60.1 µM) | Cc1ccc(C(=O)CCC(=O)NCc2ccccc2)cc1
91 | > 39.4 | Cc1ccc(NC(=O)CCN2CCOCC2)cc1C
92 | 31.4 (≈ 122 µM) | Nc1cc(N2CCOCC2)c(Cl)cc1[N+](=O)[O-]
93 | 31 (≈ 87.5 µM) | CCOc1ccc(N(CC(=O)N2CCCCCC2)S(C)(=O)=O)cc1
94 | 1.2 (≈ 3.78 µM) | CC(=O)Nc1nc(C)c(-c2nc3ccc([N+](=O)[O-])cc3[nH]2)s1
95 | 43.2 (≈ 147 µM) | CC(=O)c1ccc(N=C2NC(=O)C(CO)(CO)S2)cc1
96 | > 43.3 | CC1CCCN(S(=O)(=O)c2csc(C(N)=O)c2)C1 (stereo not given)

Row | solubility kinetic [µg/mL] | SMILES
97 | 39.8 (≈ 140 µM) | COc1ccccc1CNC(=O)CC(C)c1ccccc1 (stereo not given)
98 | 5.4 (≈ 17.6 µM) | Cc1ccc(OCCNC(=O)c2ccc3ccccc3n2)cc1
99 | 38.9 (≈ 127 µM) | Cc1cc(NC(=O)c2cc([N+](=O)[O-])cc([N+](=O)[O-])c2C)no1
100 | 44.8 (≈ 146 µM) | COc1ccc(NC(=O)Nc2c[nH]c(=O)[nH]c2=O)cc1OC
101 | 18.4 (≈ 71.9 µM) | CCNc1nc(Cl)nc(NC2CCCCC2)n1
102 | 10.8 (≈ 36.3 µM) | CC(=O)c1cn(CCOc2ccc(F)cc2)c2ccccc12
103 | 46.9 (≈ 150 µM) | Cc1ccc(OCC(=O)NCCNC(=O)c2ccccn2)cc1
104 | 45.1 (≈ 139 µM) | O=C(Nc1sc(-c2ccccc2)cc1C(=O)O)c1ccccc1
105 | 3.8 (≈ 13.5 µM) | COc1ccccc1-c1cn(-c2ccccc2)c(=S)[nH]1
106 | > 51.7 | COC(=O)C(Cc1ccccc1)NC(=O)CCNC(=O)c1ccco1 (stereo not given)
107 | > 49.6 | COc1ccc(NC(=O)COc2ccc(/C=N/O)cc2OC)cc1
108 | 13.1 (≈ 52.1 µM) | N#C/C(=C\c1cccnc1)c1ccc([N+](=O)[O-])cc1
109 | 36.7 (≈ 134 µM) | CN(Cc1nc(-c2ccccc2)no1)C1CCOCC1
110 | 21 (≈ 66 µM) | Cc1csc(NC(=O)c2ccc(OCC3CCCO3)cc2)n1 (stereo not given)
111 | > 39.5 | CCOC(=O)C(=O)N(CC)C1CCS(=O)(=O)C1 (stereo not given)
112 | > 49 | CC(=O)Nc1ccc(S(=O)(=O)N2CCCC(C(=O)O)C2)cc1 (stereo not given)
113 | > 36.2 | Cc1cccc(Nc2ccccc2C(=O)O)c1C
114 | 37.6 (≈ 108 µM) | CCOc1ccc(NC(=O)CN(C)C(=O)C2CCCC2)cc1OCC
115 | 9.9 (≈ 32.7 µM) | CCC(C)NC(=O)c1ccc2c(Cl)c3c(nc2c1)CCC3 (stereo not given)
116 | > 41.3 | COc1ccc(C(=O)NCCc2cnc[nH]2)cc1OC

Row | SMILES | solubility kinetic [µg/mL]
117 | O=C1/C(=C\c2ccc(Cl)cc2Cl)N2CCC1CC2 | 8.9 (≈ 31.5 µM)
118 | COc1ccc(N2CC2c2ccncc2)cc1 (stereo not given) | > 33.9
119 | Cc1cc(Cl)ccc1C(=O)C1CCCN(Cc2ccon2)C1 (stereo not given) | 46.3 (≈ 145 µM)
120 | CC(N)Cc1cn(Cc2ccccc2)c2ccccc12.Cl (stereo not given) | > 45.1
